Measurements reported in the CheMixHub viscosity set.

Test: xn = mol fraction of the nth substance listed

C1=C[C@H]2[C@@H](C1)[C@H]1C=C[C@@H]2C1 + Cc1ccccc1
viscosity [mPa·s], 101.2 kPa
Settings	x1 = 0.1024	x1 = 0.2018	x1 = 0.3008	x1 = 0.4006	x1 = 0.4997	x1 = 0.606	x1 = 0.7014	x1 = 0.7987	x1 = 0.8991
293.15 K	0.6849	0.7905	0.9144	1.08	1.279	1.57	1.948	2.495	3.305
298.15 K	0.6448	0.7387	0.8543	1.001	1.174	1.44	1.758	2.24	2.96
303.15 K	0.6068	0.69	0.7952	0.9255	1.083	1.313	1.602	2.024	2.665
308.15 K	0.5742	0.6559	0.7533	0.8681	1.019	1.222	1.486	1.875	2.43
313.15 K	0.5451	0.6205	0.7071	0.8118	0.9488	1.135	1.375	1.718	2.208
318.15 K	0.5187	0.5889	0.6667	0.76	0.8866	1.062	1.283	1.58	2.012

C1COCCO1 + CCO
viscosity [mPa·s]
Settings	293.15 K	298.15 K	303.15 K	308.15 K
101 kPa, x1 = 0.0584	–	0.992	–	–
101 kPa, x1 = 0.1156	–	0.938	–	–
101 kPa, x1 = 0.1834	–	0.884	–	–
101 kPa, x1 = 0.2678	–	0.86	–	–
101 kPa, x1 = 0.3	–	0.9243	–	–
101 kPa, x1 = 0.3438	–	0.849	–	–
101 kPa, x1 = 0.4473	–	0.863	–	–
101 kPa, x1 = 0.5589	–	0.885	–	–
101 kPa, x1 = 0.689	–	0.933	–	–
101 kPa, x1 = 0.8264	–	1.029	–	–
101 kPa, x2 = 0.1798	–	1.027	0.9544	0.8897
101 kPa, x2 = 0.324	–	0.9634	0.8928	0.8361
101 kPa, x2 = 0.4539	–	0.9317	0.8654	0.8124
101 kPa, x2 = 0.5608	–	0.9336	0.8661	0.8072
101 kPa, x2 = 0.6591	–	0.9547	0.8825	0.8181
101 kPa, x2 = 0.7972	–	1.025	0.9451	0.8639
101 kPa, x2 = 0.8858	–	1.102	1.008	0.919
101 kPa, x2 = 0.9427	–	1.179	1.068	0.9697
101.33 kPa, x1 = 0.0703	1.069	0.96	0.8879	0.8147
101.33 kPa, x1 = 0.1455	0.9889	0.8885	0.8285	0.7595
101.33 kPa, x1 = 0.2259	0.9468	0.8529	0.7902	0.7308
101.33 kPa, x1 = 0.3126	0.9216	0.8387	0.7727	0.7174
101.33 kPa, x1 = 0.4045	0.9225	0.8391	0.7751	0.7182
101.33 kPa, x1 = 0.5051	0.9277	0.8469	0.7819	0.7278
101.33 kPa, x1 = 0.6163	0.9582	0.8803	0.8165	0.7622
101.33 kPa, x1 = 0.7297	1.029	0.9425	0.8647	0.8101
101.33 kPa, x1 = 0.86	1.135	1.044	0.9699	0.8938
101.33 kPa, x2 = 0.2101	–	–	0.984	–
101.33 kPa, x2 = 0.5822	–	–	0.825	–
101.33 kPa, x2 = 0.7056	–	–	0.798	–
101.33 kPa, x2 = 0.9653	–	–	0.927	–
